Experimental data as given in patent US20080234368A9, “Therapeutic compositions and methods of use” (Trustees of Dartmouth College, priority 1998, published 2008).

Columns and labels:
[1] = test system: LPS-induced NO production in rat microglia; test: LPS-induced NO production in primary microglial cultures; assay type: cell-based; settings: for inhibition of LPS induction of NO production: LPS 5 ng/ml, 18 h
Method: (§1) For the following examples, stock solutions of CDDO (0.01 M) were made in DMSO and aliquots frozen at −20° C. Serial dilutions were made in DMSO before addition to cell culture media. Primary rat microglia and hippocampal neurons were isolated and cultured as described by Flaris et al., 1993 and Ren and Flanders, 1996.
(§2) The roles of inflammatory mediators, as well as aberrant programs for cell survival and apoptosis, in the genesis of cancer and Alzheimer's Disease are now undergoing serious investigation (McGeer and McGeer, 1995; Merrill and Benveniste, 1996; Akama et al., 1998). CDDO was tested in this example as a suppressor of de novo formation of iNOS in cultured microglia (the resident macrophages of the brain), as well as its ability to protect cultured hippocampal neurons from cell death induced by β-amyloid. […] Thus, LPS (5 ng/ml) induced iNOS in primary microglial cultures and caused a 27-fold increase in production of NO within 18 h. Concomitant treatment of these cultures with CDDO at either 10^−6 or 10 ^−7 M inhibited this induction by 73% and 52%, respectively. We have also explored the possibility that CDDO can protect cultured hippocampal neurons from cell death induced by the peptide β-amyloid, since NO has been implicated (Akama et al., 1998) in the neurotoxic actions of this peptide which is central to the pathogenesis of Alzheimer's disease (Selkoe, 1997). Hippocampal neurons were isolated and cultured from 16 day rat embryos and then treated with CDDO for 24 h before adding the β-amyloid peptide fragment, amino acids 25-35, at a final concentration of 10 μM. This dosing with β-amyloid alone caused death of more than half of the neurons in the culture within 24 h, as measured by MTT assay.

[2] = test system: iNOS; test: Western blot for iNOS protein in stimulated primary macrophages; assay type: cell-based, mouse; settings: concentrations of 1 μM or less; IFN-γ 10 ng/ml, LPS 2 ng/ml, 12 h
Method: (§3) FIG. 14(A) illustrates Western blots; primary mouse macrophages; IFN-γ, 10 ng/ml; LPS, 2 ng/ml were added to cultures together with triterpenoids or dexamethasone (concentrations shown as […]); cells were harvested at 12 h. FIG. 14(B) illustrates Northern blots, RAW 264.7 macrophage-like cell line. IFN-γ, 10 ng/ml; LPS, 1 ng/ml; TNF-α, 10 ng/ml, were added to cultures together with CDDO or dexamethasone. RNA prepared after 12 h; GAPDH used as a loading control. FIG. 14(C) illustrates suppression of production of NO and PGEF in primary macrophages. For NO studies, cells were treated with IFN-γ, 10 ng/ml, together with CDDO (M), dexamethasone (O), TP-82 (□), or oleanolic acid (A). After 48 h, supernatants were analyzed for NO by the Griess reaction. For PGEF studies, cells were treated with IFN-γ, 5 ng/ml, and LPS, 5 ng/ml, together with the same set of inhibitors. After 48 h, PGE was measured in supernatants by immunoassay. Control values (no inhibition) for NO and PGE2 were 4.7 nmol/[…] and 2.2 ng/ml/2×10^5 cells, respectively. FIGS. (14D) and (14E) illustrate (human colon myofibroblasts) ^18Co cells grown in MEM/10% FBS; other methods are the same as reported above for macrophages. FIG. 14(D) illustrates Northern blots showing dose-response for suppression of COX-2 mRNA after induction with IL-1β (30 pg/ml). CDDO was added together with IL-1. […]

[3] = test system: NO production in primary macrophages; test: Suppression of NO production in primary macrophages (FIG. 14C); assay type: cell-based, mouse; settings: levels as low as 10^−9 M; IFN-γ 10 ng/ml, 48 h
Method: as §3

[4] = test system: rat hippocampal neurons; test: Protection of hippocampal neurons from β-amyloid induced cell death, MTT assay; assay type: cell-based
Method: as §1, §2

[5] = test system: MDA-MB-468 ER negative breast carcinoma cells; test: Inhibition of cell proliferation (3H-thymidine incorporation); assay type: cell-based, human; settings: MDA-MB-468 (Smad4/DPC4 mutation); 3 or 4 days, 3H-thymidine 2 h
Method: (§4) All cells were obtained from ATCC, except as noted. They were grown under standard conditions in either DMEM, DMEM/F 12, or RPMI 1640 media plus 5-10% FBS. CDDO, over the dose range 10^−6 to 10^−10 M, was added to cultures at the time of seeding. Three or 4 days later, cells were treated with ^3H-thymidine for 2 h (12 h in the case of leukemia cells), and then incorporation was measured. “ER” means estrogen receptor.
(§5) ^aThese cells all have […] mutations (Schutte et al. 1996).

[6] = test system: AsPc-1 pancreatic carcinoma cells; test: as above; assay type: cell-based, human; settings: AsPc-1 (Smad4/DPC4 mutation); 3 or 4 days, 3H-thymidine 2 h
Method: as §4, §5

[7] = test system: SW626 ovarian carcinoma cells; test: as above; assay type: cell-based, human; settings: SW626 (Smad4/DPC4 mutation); 3 or 4 days, 3H-thymidine 2 h
Method: as §4, §5

[8] = test system: CAPAN-1 pancreatic carcinoma cells; test: as above; assay type: cell-based, human; settings: CAPAN-1 (Smad4/DPC4 mutation); 3 or 4 days, 3H-thymidine 2 h
Method: as §4, §5

CC1(C)CC[C@]2(C(=O)O)CC[C@]3(C)[C@H](C(=O)C=C4[C@@]5(C)C=C(C#N)C(=O)C(C)(C)[C@@H]5CC[C@]43C)[C@@H]2C1 [Compound 6, 2-cyano-3,12-dioxoolean-1,9-dien-28-oic acid]
inhibition of LPS induction of NO production ([1]; CDDO 10^−6 M): 73%
inhibition of LPS induction of NO production ([1]; CDDO 10^−7 M): 52%
activity on LPS-induced NO production compared with dexamethasone (FIG. 2) ([1]; rat microglia cells): favorable to that of dexamethasone
expression of iNOS protein [2]: blocked expression
inhibition of cumulative NO production [3]: Significant inhibition
protection against β-amyloid induced cell death ([4]; CDDO 10^−7 M, 24 h pretreatment, β-amyloid 25-35 10 μM, 24 h): totally prevented this cell death
protection against β-amyloid induced cell death ([4]; CDDO 10^−8 M, 24 h pretreatment, β-amyloid 25-35 10 μM, 24 h): totally prevented this cell death
protection against β-amyloid induced cell death ([4]; doses as low as 10^−10 M): some protective activity
IC50 [5]: 200 nM
IC50 [6]: 100 nM
IC50 [7]: 300 nM
IC50 [8]: 300 nM
